Reference: patent US7968713B2, “Method of synthesizing quinoxaline derivative by microwave irradiation” (Nihon University, priority 2005, dated 2011)

What was measured:
HepG2 cells = experiment: Hypoxic selective cytotoxicity test with respect to HepG2 cells (colony forming ratio); type: cell-based, human; conditions: 20 μM exposed for six hours, cultivated for seven days; for Activity (Surviving fraction) (%) hypoxia: hypoxic state (hypoxia); for Activity (Surviving fraction) (%) noroxia: usual oxygen state (noroxia)
Procedure: (Hypoxic Selective Cytotoxicity Test with Respect to HepG2 Cells)
A cytotoxicity reinforcing effect on a hypoxic condition was tested using HepG2 cells which were human liver cancer cells. In a usual oxygen state (noroxia) and a hypoxic state (hypoxia), 20 μM of each quinoxaline 1,4-dioxide derivative shown in Table 1 (Compounds 1 to 8 including R1 to R6 shown in Table 1 in the above general formula (3)) was exposed for six hours, and cultivated for seven days, and then colony forming ratios were compared. It is to be noted that in Table 1, “Ph-NO2” is a group in which a nitro group is introduced into a para position of a benzoyl group.

| SMILES | melting point | Activity (Surviving fraction) (%) hypoxia (HepG2 cells) [%] | Activity (Surviving fraction) (%) noroxia (HepG2 cells) [%] |
| --- | --- | --- | --- |
| Cc1c(C(=O)c2ccc([N+](=O)[O-])cc2)[n+]([O-])c2cc(Cl)c(Cl)cc2[n+]1[O-] [Compound 7, 6,7-dichloro-3-methyl-2-(4′-nitrobenzoyl)-quinoxaline 1,4-dioxide] | 215 to 217 °C | 6 | 73 |
| Cc1c(C(=O)c2ccc([N+](=O)[O-])cc2)[n+]([O-])c2cc(F)c(F)cc2[n+]1[O-] [Compound 8, 6,7-difluoro-3-methyl-2-(41-nitrobenzoyl)-quinoxaline 1,4-dioxide] | 232 to 233 °C | 1 | 44 |
| O=C(c1ccccc1)c1c(-c2ccccc2)[n+]([O-])c2cc(F)c(F)cc2[n+]1[O-] [Example 2, 2-benzoyl-6,7-difluoro-3-phenylquinoxaline 1,4-dioxide] | 249 to 251 °C |  |  |
| COc1cc2c(cc1OC)[n+]([O-])c(-c1ccccc1)c(C(=O)c1ccccc1)[n+]2[O-] [Example 3, 2-benzoyl-6,7-dimethoxy-3-phenylquinoxaline 1,4-dioxide] | 286 °C (dec.) |  |  |
| COc1cc2c(cc1OC)[n+]([O-])c(C(C)=O)c(C)[n+]2[O-] [Example 5, 2-acetyl-6,7-dimethoxy-3-methylquinoxaline 1,4-dioxide] | 254 °C |  |  |
